Results taken from patent publication US5962516A, “Immunosuppressive compounds and methods” (priority 1999, dated 1999).
≈ marks a conversion by molar mass, not a printed value. Counter-ions that a name gives are not always drawn.

Legend:
[1] = Cytotoxicity by MTT reduction reported with the IL-1 assay (Table I); type: cell-based; details: mouse, thymocytes, cytotoxic when toxicity greater than 25%
Method: (§1) Potential cytotoxicity of the test samples was assessed by the measurement of their effect on the reduction of MTT (3-[4,5-Dimethylthiazole-2-yl]-2,5-diphenyltetrazolium bromide) by cultured cells. MTT, a yellow-colored compound, is reduced by mitochondrial enzymes to form the purple crystalline reduction product formazane, providing an index of cellular respiration on viable cells as well as a sensitive assay for cytotoxicity (Mossmann, 1983).
(§2) The cytotoxicity was assessed in cultured human PBMC and mouse thymocytes. A stock solution of MTT (Sigma) at 5 mg/ml in phosphate buffered saline, pH 7.4, was prepared and stored in the dark at 4° C. PBMCs or thymocytes were cultured with various concentrations of test samples in flatbottom 96-well tissue culture plates (Costar) under the same conditions as those described above, but the stimulants (X-35 or IL-1+PHA) were replaced by appropriate medium. Untreated cells with medium alone and without the test samples were used as controls. After incubation for 21 hours, 25 μl of MTT solution was added to each well. After an additional three hours of incubation, the experiment was terminated by addition of a solution of 10% sodium dodecyl sulfate in 0.01 N HCl. Following overnight incubation at 37° C. to solubilize the formazane crystals, optical density was determined at 570-650 nm in microplate reader. […]

[2] = Cytotoxicity by MTT reduction reported with the MLR assay (Table II); type: cell-based; details: cytotoxic when toxicity greater than 25%
Method: as §1, §2

[3] = Stability in blood serum by TLC; type: in vitro ADME; details: rat serum, 37° C
Method: The stability of triptolide succinate in blood serum was determined as detailed in Example 10B. In this study, a solution of triptolide succinate (YM-262, free acid) in DMSO was mixed with rat serum and incubated at 37° C. The mixture was assayed periodically by thin layer chromatography (TLC) to follow the hydrolysis of the triptolide succinate over time.
A solution of triptolide succinate (free acid; YM-262) in DMSO was made at a concentration of 25 mg/ml, and 0.1 ml of this solution was mixed with 0.5 ml of rat serum. The mixture was incubated at 37° C. Aliquots of the mixture were taken at 1, 3, 5, 15, 45 minutes and 18 hours and analyzed by thin layer chromatography (TLC). The TLC plates were developed in 1:5 CH2 Cl2 /Et2 O. After development, the plates were treated with iodine vapor and examined under a UV lamp. Triptolide and triptolide succinate were used as reference compounds (Rf =0.60 and 0.45, respectively).

[4] = tested on: heart transplant rejection; test: Cardiac allograft survival (heterotopic heart transplantation in rats); type: in vivo, rat (Brown Norway donors, Lewis recipients); details: for mean survival time of allograft / mean survival time compared with underivatized triptolide: i.p.; for mean survival time of allograft: day -1 to 14; for mean survival time compared with underivatized triptolide: equimolar doses (YM-273 0.40, YM-274 0.33, T10 0.25 mg/kg)
Description: Treatment of transplantation rejection, in accordance with the invention, is illustrated for rejection of an allograft by the in vivo heart transplantation model used in Example 14. The method involves a well-characterized rat model system (Ono and Lindsey, 1969) in which a transplanted heart is attached to the abdominal great vessels of an allogeneic recipient animal, and the viability of the transplanted heart is gauged by the heart's ability to beat in the recipient animal.
In one study, the animals were administered by intraperitoneal injections, from one day preceding to 14 days following heart transplantation, either control solution (5% ethanol, 10 ml/kg), triptolide (designated as T10), or with two concentrations each of YM-273 and YM-274. There were three animals in each group, except for the control group in which five animals were used.
Heterotopic whole heart transplantation was performed according to the standard method (Ono and Lindsey, 1969). The donors (Brown Norway rats, 200-255 g, Charles River, Wilmington, Mass.) and recipients (Adult male Lewis rats, 225-275g, Charles River) were anesthetized with sodium pentobarbital (40 mg/kg). Following adequate donor anticoagulation using heparin, the heart graft was removed and stored at 4° C. in PhysioSol Irrigation Solution (Abbott Laboratories, N. Chicago, Ill.). The ascending aorta and pulmonary artery were transected, and the vena cava and pulmonary veins were ligated. […] The cold ischemic time of all the cardiac grafts was less than 45 minutes. Graft heartbeat was monitored by abdominal palpation. The period of functional graft survival was measured as the number of days during which cardiac graft contractions could be detected by abdominal palpation. Results were confirmed by direct visualization at laparotomy.
Heart transplant recipient animals prepared as described above (3-5 animals/group) were treated with (i) control solution (5% ethanol, 10 ml/kg), (ii) YM-273 at 0.10 mg/kg and 0.40 mg/kg (FIG. 5A), (iii) YM-274 at 0.084 and 0.33 mg/kg (FIG. 5B), and (iv) and T10 (triptolide) 0.25 mg/kg (FIG. 6). In addition to showing the results for T10, FIG. 6 repeats the results from FIGS. 5A-5B for YM-273 and YM-274 at 0.40 and 0.33 mg/kg, respectively, such that their concentrations were equimolar relative to T10. All compounds were administered intraperitoneally. Treatment started on the day prior to surgery and continuing daily until postoperative day 14, or until the end of allograft survival.

**Q.** With `CC(C)[C@]12O[C@H]1[C@@H]1O[C@]13[C@]1(O[C@H]1C[C@H]1C4=C(CC[C@@]13C)C(=O)OC4)[C@@H]2O` [Triptolide, triptolide, reference compound] as the compound, how does the CC50 at 24 h [1] read?
**A.** > 12.5 µg/mL

**Q.** What about the CC50 at 24 h [2] of the same compound?
**A.** 0.0133 µg/mL (≈ 0.0369 µM)

**Q.** And the “triptolide formed from triptolide succinate in serum, 15 minutes” value ([3]; 15 minutes after addition of YM-262, TLC)?
**A.** a new spot corresponding to triptolide had appeared

**Q.** What about the “triptolide formed from triptolide succinate in serum, 45 minutes” value ([3]; 45 minutes after addition of YM-262, TLC) of the same compound?
**A.** the triptolide spot had also disappeared

**Q.** For `CC(C)C12OC1C1OC13C1(C)CCC4=C(COC4=O)C1CC1OC13C2OC(=O)CCC(=O)O` (stereo not shown) [YM-262, Triptolide Succinate], which CC50 at 24 h [1] is on record?
**A.** > 12.5 µg/mL

**Q.** And the “time for hydrolysis in blood serum to triptolide” value [3]?
**A.** ≤ 15 min

**Q.** What about the “time for hydrolysis in serum to release free triptolide” value [3] of the same compound?
**A.** less than an hour

**Q.** What about the “stability in blood serum, 3 minutes” value ([3]; 3 minutes, TLC) of the same compound?
**A.** only triptolide succinate was detected by TLC

**Q.** And the “stability in blood serum, 15 minutes” value ([3]; 15 minutes, TLC)?
**A.** the triptolide succinate spot was gone

**Q.** And the “stability in blood serum, 3 to 5 minutes” value ([3]; first 3 to 5 minutes, TLC)?
**A.** most of the triptolide succinate remained

**Q.** For `CC(C)C12OC1C1OC13C1(C)CCC4=C(COC4=O)C1CC1OC13C2OC(=O)CCC(=O)O` (stereo not shown) [YM-273, Triptolide Succinate Tris Salt], which “mean survival time of allograft” value ([4]; YM-273, 0.1 mg/kg) is on record?
**A.** 7 days

**Q.** And the “mean survival time compared with control” value ([4]; YM-273, 0.4 mg/kg i.p.)?
**A.** substantial improvement over the control

**Q.** And the “mean survival time of allograft” value ([4]; YM-273, 0.4 mg/kg)?
**A.** 24 days

**Q.** What about the “mean survival time compared with underivatized triptolide” value [4] of the same compound?
**A.** somewhat better than that seen with underivatized triptolide

**Q.** With `CC(C)C12OC1C1OC13C1(C)CCC4=C(COC4=O)C1CC1OC13C2OC(=O)CCC(=O)O` (stereo not shown) [YM-274, Triptolide Succinate Sodium Salt] as the compound, how does the “mean survival time of allograft” value ([4]; YM-274, 0.0837 mg/kg) read?
**A.** 10 days

**Q.** What about the “mean survival time compared with underivatized triptolide” value ([4]; Succinate Sodium Salt) of the same compound?
**A.** substantially better
